Assay results as given in patent US7652029B2, “Therapeutic compound and treatments” (priority 2004, dated 2010).

Legend:
[1] = system: CCRF-CEM; assay: NCI multiple cell line test (SRB); type: cell-based, human; conditions: CCRF-CEM (Leukemia), 48 h
[2] = system: MOLT-4; assay: NCI multiple cell line test (SRB); type: cell-based, human; conditions: MOLT-4 (Leukemia), 48 h
[3] = system: A549/ATCC; assay: NCI multiple cell line test (SRB); type: cell-based, human; conditions: A549/ATCC (Non-Small Cell Lung Cancer), 48 h
[4] = system: NCI-H226; assay: NCI multiple cell line test (SRB); type: cell-based, human; conditions: NCI-H226 (Non-Small Cell Lung Cancer), 48 h
[5] = system: NCI-H460; assay: NCI multiple cell line test (SRB); type: cell-based, human
[6] = system: HCT-15; assay: NCI multiple cell line test (SRB); type: cell-based, human; conditions: HCT-15 (Colon Cancer), 48 h
[7] = system: HT29; assay: NCI multiple cell line test (SRB); type: cell-based, human; conditions: HT29 (Colon Cancer), 48 h
[8] = system: SF-268; assay: NCI multiple cell line test (SRB); type: cell-based, human
[9] = system: SNB-19; assay: NCI multiple cell line test (SRB); type: cell-based, human; conditions: SNB-19 (CNS Cancer), 48 h
[10] = system: LOX IMVI; assay: NCI multiple cell line test (SRB); type: cell-based, human; conditions: LOX IMVI (Melanoma), 48 h
[11] = system: SK-MEL-28; assay: NCI multiple cell line test (SRB); type: cell-based, human; conditions: SK-MEL-28 (Melanoma), 48 h
[12] = system: UACC-62; assay: NCI multiple cell line test (SRB); type: cell-based, human; conditions: UACC-62 (Melanoma), 48 h
[13] = system: OVCAR-3; assay: NCI multiple cell line test (SRB); type: cell-based, human; conditions: OVCAR-3 (Ovarian Cancer), 48 h
[14] = system: OVCAR-5; assay: NCI multiple cell line test (SRB); type: cell-based, human; conditions: OVCAR-5 (Ovarian Cancer), 48 h
[15] = system: OVCAR-8; assay: NCI multiple cell line test (SRB); type: cell-based, human; conditions: OVCAR-8 (Ovarian Cancer), 48 h
[16] = system: CAKI-1; assay: NCI multiple cell line test (SRB); type: cell-based, human; conditions: CAKI-1 (Renal Cancer), 48 h
[17] = system: SN12C; assay: NCI multiple cell line test (SRB); type: cell-based, human; conditions: SN12C (Renal Cancer), 48 h
[18] = system: UO-31; assay: NCI multiple cell line test (SRB); type: cell-based, human; conditions: UO-31 (Renal Cancer), 48 h
[19] = system: PC-3; assay: NCI multiple cell line test (SRB); type: cell-based, human; conditions: PC-3 (Prostate Cancer), 48 h
[20] = system: MDA-MB-435; assay: NCI multiple cell line test (SRB); type: cell-based, human; conditions: MDA-MB-435 (Breast Cancer), 48 h
[21] = system: T-47D; assay: NCI multiple cell line test (SRB); type: cell-based, human; conditions: T-47D (Breast Cancer), 48 h
[22] = system: normal human lung fibroblasts; assay: Growth response, MTT dye conversion assay; type: cell-based; conditions: compared with cisplatin
[23] = system: ACHN cells; assay: Growth response, MTT dye conversion assay; type: cell-based, human; conditions: low doses (FIG. 14 as printed)
[24] = Homo sapiens, read-out: −log10GI50 (converted)
[25] = NCI-H460 (Non-Small Cell Lung Cancer), 48 h

COC(=O)C1=C(C(=O)OC)SC2(S1)C(C(=O)OC)=C(C(=O)OC)SC1=C2c2cccc(OC)c2N(C(=O)CN2C(=O)CCC2=O)C1(C)C [MT477]
−log10LC50 [1]: * (effect not reached at maximum dose of 0.05 millimolar) | −log10TGI [1]: * (effect not reached at maximum dose of 0.05 millimolar) | IC50 [1, 24]: 3.24 µM | IC50 [2, 24]: 1.02 µM | −log10LC50 [2]: 4.68 molar | −log10TGI [2]: 5.64 molar | −log10LC50 [3]: * (effect not reached at maximum dose of 0.05 millimolar) | −log10TGI [3]: 4.77 molar | IC50 [3, 24]: 3.8 µM | IC50 [4, 24]: 7.08 µM | −log10LC50 [4]: * (effect not reached at maximum dose of 0.05 millimolar) | −log10TGI [4]: 4.72 molar | IC50 ([5]; Homo sapiens, NCI-H460 (Non-Small Cell Lung Cancer), 48 h, read-out: −log10GI50 (converted)): 1.74 µM | GI50 ([5]; Homo sapiens, NCI-H460, MT477 ACTUAL): 1.74 µM | Activity against lung cancer NCI-H460 ([5]; MT477 ACTUAL): Yes | −log10LC50 [5, 25]: * (effect not reached at maximum dose of 0.05 millimolar) | −log10TGI [5, 25]: * (effect not reached at maximum dose of 0.05 millimolar) | −log10LC50 [6]: 4.69 molar | −log10TGI [6]: 5.27 molar | IC50 [6, 24]: 1.48 µM | −log10LC50 [7]: * (effect not reached at maximum dose of 0.05 millimolar) | −log10TGI [7]: 4.65 molar | IC50 ([7]; Homo sapiens, HT-29, read-out: −log10GI50 (converted)): 1.7 µM | GI50 ([8]; Homo sapiens, SF-268, NCI-SF268, MT477 ACTUAL): 2.51 µM | IC50 ([8]; Homo sapiens, SF-268 (CNS Cancer), 48 h, read-out: −log10GI50 (converted)): 2.14 µM | Activity against CNS cancer NCI-SF268 ([8]; MT477 ACTUAL): Yes | −log10LC50 ([8]; SF-268 (CNS Cancer), 48 h): * (effect not reached at maximum dose of 0.05 millimolar) | −log10TGI ([8]; SF-268 (CNS Cancer), 48 h): 4.97 molar | IC50 [9, 24]: 7.94 µM | −log10LC50 [9]: 4.46 molar | −log10TGI [9]: 4.78 molar | IC50 [10, 24]: 0.851 µM | −log10LC50 [10]: 5.52 molar | −log10TGI [10]: 5.79 molar | IC50 [11, 24]: 1.55 µM | −log10LC50 [11]: * (effect not reached at maximum dose of 0.05 millimolar) | −log10TGI [11]: 5.27 molar | IC50 [12, 24]: 1.17 µM | −log10LC50 [12]: 5.03 molar | −log10TGI [12]: 5.55 molar | IC50 [13, 24]: 0.813 µM | −log10LC50 [13]: 5.39 molar | −log10TGI [13]: 5.74 molar | IC50 [14, 24]: 8.91 µM | −log10LC50 [14]: 4.53 molar | −log10TGI [14]: 4.79 molar | IC50 [15, 24]: 6.92 µM | −log10LC50 [15]: 4.37 molar | −log10TGI [15]: 4.77 molar | −log10LC50 [16]: 4.48 molar | −log10TGI [16]: 4.83 molar | IC50 [16, 24]: 6.61 µM | IC50 [17, 24]: 5.89 µM | −log10LC50 [17]: 4.6 molar | −log10TGI [17]: 4.91 molar | IC50 [18, 24]: 3.39 µM | −log10LC50 [18]: * (effect not reached at maximum dose of 0.05 millimolar) | −log10TGI [18]: 4.81 molar | IC50 [19, 24]: 1.45 µM | −log10LC50 [19]: 4.64 molar | −log10TGI [19]: 5.35 molar | IC50 [20, 24]: 1.7 µM | −log10LC50 [20]: 4.58 molar | −log10TGI [20]: 5.27 molar | IC50 ([21]; Homo sapiens, T47D, read-out: −log10GI50 (converted)): 1.51 µM | −log10LC50 [21]: * (effect not reached at maximum dose of 0.05 millimolar) | −log10TGI [21]: 5.40 molar | growth response ([22]; FIG. 10, normal human lung cells at 24 and 48 hours): more effective than cisplatin | cytotoxicity profile (growth response) ([22]; FIGS. 1 and 2, 48 hours): cytotoxicity profile that is similar to cisplatin | growth response at low concentrations [23]: effective even at very low doses, including micromolar dosages
